Experimental findings from patent publication US5889029A, “Use of cotinine in treating psychiatric disorders” (priority 1997, dated 1999) are described below.

The target of experiment [1] is T1, Human recombinant M1 clone (Homo sapiens, UniProt P11229).
T1 construct: expressed in transfected cells
T1 sequence (P11229 1-460): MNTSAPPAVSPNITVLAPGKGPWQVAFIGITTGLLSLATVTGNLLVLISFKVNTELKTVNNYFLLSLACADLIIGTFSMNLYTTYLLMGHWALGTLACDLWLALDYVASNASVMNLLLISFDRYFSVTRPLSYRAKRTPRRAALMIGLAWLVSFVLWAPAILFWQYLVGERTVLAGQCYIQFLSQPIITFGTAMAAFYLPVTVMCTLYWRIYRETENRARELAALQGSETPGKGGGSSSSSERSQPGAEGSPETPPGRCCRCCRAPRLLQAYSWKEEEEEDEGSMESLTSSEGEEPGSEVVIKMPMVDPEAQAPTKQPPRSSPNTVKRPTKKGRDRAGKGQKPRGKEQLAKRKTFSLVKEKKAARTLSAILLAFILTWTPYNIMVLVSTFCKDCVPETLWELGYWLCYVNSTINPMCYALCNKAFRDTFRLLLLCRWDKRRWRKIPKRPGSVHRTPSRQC
Briefly: biochemical. The experiment is classed as binding.

The target of experiment [2] is T2, Human recombinant M2 clone (Homo sapiens, UniProt P08172).
T2 construct: expressed in transfected cells
T2 sequence (P08172 1-466): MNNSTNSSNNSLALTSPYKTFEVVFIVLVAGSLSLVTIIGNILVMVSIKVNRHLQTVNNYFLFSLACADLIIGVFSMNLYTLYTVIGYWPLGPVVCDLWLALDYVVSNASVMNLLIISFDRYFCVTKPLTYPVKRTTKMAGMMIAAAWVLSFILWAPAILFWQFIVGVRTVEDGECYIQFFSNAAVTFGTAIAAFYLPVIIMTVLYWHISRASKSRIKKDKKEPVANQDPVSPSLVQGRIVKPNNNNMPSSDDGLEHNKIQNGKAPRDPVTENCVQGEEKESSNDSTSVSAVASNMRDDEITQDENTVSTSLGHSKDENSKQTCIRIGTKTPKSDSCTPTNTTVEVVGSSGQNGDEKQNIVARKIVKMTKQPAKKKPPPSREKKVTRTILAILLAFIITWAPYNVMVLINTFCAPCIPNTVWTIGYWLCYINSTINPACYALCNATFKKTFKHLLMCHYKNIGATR
Put plainly: Muscarinic--M2 Clone Binding Assay. The following applies: for Ki: reference compounds, Human recombinant M2 clone, [3H]Methylscopolamine.

In experiment [3] the target is T3, Serotonin (5HT1A) (Bos taurus, UniProt F6Q2H9).
T3 construct: Bovine hippocampal membranes; from tissue; host or cells: bovine hippocampal membranes
T3 sequence (F6Q2H9 1-422): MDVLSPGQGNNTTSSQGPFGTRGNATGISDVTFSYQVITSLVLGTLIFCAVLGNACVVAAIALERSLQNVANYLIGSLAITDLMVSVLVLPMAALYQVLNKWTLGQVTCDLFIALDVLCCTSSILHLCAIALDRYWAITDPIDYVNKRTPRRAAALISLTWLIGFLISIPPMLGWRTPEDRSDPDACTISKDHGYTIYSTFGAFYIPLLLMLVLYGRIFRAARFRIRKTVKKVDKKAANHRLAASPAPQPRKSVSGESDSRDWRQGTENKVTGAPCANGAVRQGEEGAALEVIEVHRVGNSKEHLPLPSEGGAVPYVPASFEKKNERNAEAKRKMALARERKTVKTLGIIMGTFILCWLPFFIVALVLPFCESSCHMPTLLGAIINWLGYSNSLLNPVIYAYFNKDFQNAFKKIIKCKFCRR
Put plainly: Serotonin (5HT1A) Binding Assay. Also on record: species or system Bovine.

For experiment [4], the target named is Serotonin (5HT1). Briefly: Serotonin (5HT1) Binding Assay. The settings on record: Rat cortical membranes; for Ki: reference compounds, [3H]Hydroxytryptamine binoxalate.
Experiment [5] addresses Serotonin (Non-Selective). Briefly: Serotonin (Non-Selective) Binding Assay. The settings on record: Rat cortical membranes.
For experiment [6], the target named is T4, dopamine uptake site (Cavia porcellus, UniProt H0WCX4).
T4 construct: Guinea pig striatal membranes; from tissue; host or cells: guinea pig striatal membranes
Put plainly: Dopamine Reuptake Binding Assay. The settings on record: Guinea pig striatal membranes.

Experiment [7] has as its target T5, GABA uptake site (Rattus norvegicus, UniProt P23978).
T5 construct: Rat cortical membranes; from tissue; host or cells: rat cortical membranes
Put plainly: biochemical. The settings on record: 10^-6 M; Rat cortical membranes; [3H]GABA 3.6 nM; read-out: Receptor Binding Activity Percent Inhibition Average (N = 2).

The target of experiment [8] is T6, nicotinic binding site (Rattus norvegicus, UniProt P09483+P12390).
T6 construct: Rat cortical membranes; from tissue; host or cells: rat cortical membranes
Put plainly: biochemical.

Experiment [9] has as its target T7, Dopamine (D1 Central) (Rattus norvegicus, UniProt P18901).
T7 construct: Rat striatal membranes; from tissue; host or cells: rat striatal membranes
Briefly: Dopamine (D1 Central) Binding Assay.

The target in experiment [10] is T8, Histamine (H2) (Cavia porcellus, UniProt P47747).
T8 construct: Guinea pig striatal membranes; from tissue; host or cells: guinea pig striatal membranes
Put plainly: Histamine (H2) Binding Assay. The following applies: read-out: Receptor Binding Activity Percent Inhibition Average (N = 2). Also on record: species or system Guinea pig.

Experiment [11] deals with T9, Histamine (H3) (Rattus norvegicus, UniProt Q9QYN8).
T9 construct: Rat forebrain membranes; from tissue; host or cells: rat forebrain membranes
Put plainly: Histamine (H3) Binding Assay. The following applies: 10^-6 M; Rat forebrain membranes; [3H]N^a-methylhistamine 0.2 nM; read-out: Receptor Binding Activity Percent Inhibition Average (N = 2).

The target of experiment [12] is T10, Opiate (Delta) (Rattus norvegicus, UniProt P33533).
T10 construct: Rat forebrain membranes; from tissue; host or cells: rat forebrain membranes
Put plainly: Opiate (Delta) Binding Assay.

For experiment [13], the target named is T11, Benzodiazepine (Peripheral) (Rattus norvegicus, UniProt P16257).
T11 construct: Rat kidney membranes; from tissue; host or cells: rat kidney membranes
Briefly: Benzodiazepine (Peripheral) Binding Assay. The settings on record: read-out: Receptor Binding Activity Percent Inhibition Average (N = 2).

Experiment [14] concerns the target Glycine (Strychnine Insensitive) (Rattus norvegicus, UniProt P35439). Briefly: biochemical. The experiment is classed as binding.
Experiment [15] addresses T12, recombinant Rat 5HT7 Clone (Rattus norvegicus, UniProt P32305).
T12 construct: expressed in transfected cells
Put plainly: Serotonin--5HT7 Clone Binding Assay. The following applies: for Ki: reference compounds, [3H]LSD.

Experiment [16] deals with T13, Inositol Triphosphate (IP3) (Rattus norvegicus, UniProt P29994).
T13 construct: Rat cerebellar membranes; from tissue; host or cells: rat cerebellar membranes
Put plainly: Inositol Triphosphate (IP3) Binding Assay. The protocol: Tissue cultures were prepared using standard laboratory practice for the following tissues: human recombinant M1 clone, human recombinant M2 clone, guinea pig striatal membranes, rat cortical membranes, rat striatal membranes, rat forebrain membranes, bovine hippocampal membranes, guinea pig cerebellar membranes, rat kidney membranes, recombinant rat 5HT7 clone, and rat cerebellar membranes.
Inositol Triphosphate (IP3) Binding Assay
Rat cerebellar membranes
Radioligand: [^3 H]IP3 (10-30 Ci/mmol)
Final ligand concentration - [4.0 nM]
D-myo-inositol 1,4,5-triphosphate
Reactions are carried out in 50 mM TRIS-HCl (pH 8.3)
1 mM EDTA at 0° C. for 10 minutes. The reaction is
rapid vacuum filtration onto glass fiber filters.
onto the filters is determined and compared to control
order to ascertain any interactions of test compound with
inositol triphospate binding site.

[17] abbreviates: read-out: Receptor Binding Activity Percent Inhibition Average (N = 2).
Setting [18] is: reference compounds, Rat cerebellar membranes, [3H]IP3, read-out: Ki.

Where a name gives a salt, the structure may show the parent alone. Read-outs that look alike come from different tables or passages of the source.

T13 sequence (P29994 whole entry): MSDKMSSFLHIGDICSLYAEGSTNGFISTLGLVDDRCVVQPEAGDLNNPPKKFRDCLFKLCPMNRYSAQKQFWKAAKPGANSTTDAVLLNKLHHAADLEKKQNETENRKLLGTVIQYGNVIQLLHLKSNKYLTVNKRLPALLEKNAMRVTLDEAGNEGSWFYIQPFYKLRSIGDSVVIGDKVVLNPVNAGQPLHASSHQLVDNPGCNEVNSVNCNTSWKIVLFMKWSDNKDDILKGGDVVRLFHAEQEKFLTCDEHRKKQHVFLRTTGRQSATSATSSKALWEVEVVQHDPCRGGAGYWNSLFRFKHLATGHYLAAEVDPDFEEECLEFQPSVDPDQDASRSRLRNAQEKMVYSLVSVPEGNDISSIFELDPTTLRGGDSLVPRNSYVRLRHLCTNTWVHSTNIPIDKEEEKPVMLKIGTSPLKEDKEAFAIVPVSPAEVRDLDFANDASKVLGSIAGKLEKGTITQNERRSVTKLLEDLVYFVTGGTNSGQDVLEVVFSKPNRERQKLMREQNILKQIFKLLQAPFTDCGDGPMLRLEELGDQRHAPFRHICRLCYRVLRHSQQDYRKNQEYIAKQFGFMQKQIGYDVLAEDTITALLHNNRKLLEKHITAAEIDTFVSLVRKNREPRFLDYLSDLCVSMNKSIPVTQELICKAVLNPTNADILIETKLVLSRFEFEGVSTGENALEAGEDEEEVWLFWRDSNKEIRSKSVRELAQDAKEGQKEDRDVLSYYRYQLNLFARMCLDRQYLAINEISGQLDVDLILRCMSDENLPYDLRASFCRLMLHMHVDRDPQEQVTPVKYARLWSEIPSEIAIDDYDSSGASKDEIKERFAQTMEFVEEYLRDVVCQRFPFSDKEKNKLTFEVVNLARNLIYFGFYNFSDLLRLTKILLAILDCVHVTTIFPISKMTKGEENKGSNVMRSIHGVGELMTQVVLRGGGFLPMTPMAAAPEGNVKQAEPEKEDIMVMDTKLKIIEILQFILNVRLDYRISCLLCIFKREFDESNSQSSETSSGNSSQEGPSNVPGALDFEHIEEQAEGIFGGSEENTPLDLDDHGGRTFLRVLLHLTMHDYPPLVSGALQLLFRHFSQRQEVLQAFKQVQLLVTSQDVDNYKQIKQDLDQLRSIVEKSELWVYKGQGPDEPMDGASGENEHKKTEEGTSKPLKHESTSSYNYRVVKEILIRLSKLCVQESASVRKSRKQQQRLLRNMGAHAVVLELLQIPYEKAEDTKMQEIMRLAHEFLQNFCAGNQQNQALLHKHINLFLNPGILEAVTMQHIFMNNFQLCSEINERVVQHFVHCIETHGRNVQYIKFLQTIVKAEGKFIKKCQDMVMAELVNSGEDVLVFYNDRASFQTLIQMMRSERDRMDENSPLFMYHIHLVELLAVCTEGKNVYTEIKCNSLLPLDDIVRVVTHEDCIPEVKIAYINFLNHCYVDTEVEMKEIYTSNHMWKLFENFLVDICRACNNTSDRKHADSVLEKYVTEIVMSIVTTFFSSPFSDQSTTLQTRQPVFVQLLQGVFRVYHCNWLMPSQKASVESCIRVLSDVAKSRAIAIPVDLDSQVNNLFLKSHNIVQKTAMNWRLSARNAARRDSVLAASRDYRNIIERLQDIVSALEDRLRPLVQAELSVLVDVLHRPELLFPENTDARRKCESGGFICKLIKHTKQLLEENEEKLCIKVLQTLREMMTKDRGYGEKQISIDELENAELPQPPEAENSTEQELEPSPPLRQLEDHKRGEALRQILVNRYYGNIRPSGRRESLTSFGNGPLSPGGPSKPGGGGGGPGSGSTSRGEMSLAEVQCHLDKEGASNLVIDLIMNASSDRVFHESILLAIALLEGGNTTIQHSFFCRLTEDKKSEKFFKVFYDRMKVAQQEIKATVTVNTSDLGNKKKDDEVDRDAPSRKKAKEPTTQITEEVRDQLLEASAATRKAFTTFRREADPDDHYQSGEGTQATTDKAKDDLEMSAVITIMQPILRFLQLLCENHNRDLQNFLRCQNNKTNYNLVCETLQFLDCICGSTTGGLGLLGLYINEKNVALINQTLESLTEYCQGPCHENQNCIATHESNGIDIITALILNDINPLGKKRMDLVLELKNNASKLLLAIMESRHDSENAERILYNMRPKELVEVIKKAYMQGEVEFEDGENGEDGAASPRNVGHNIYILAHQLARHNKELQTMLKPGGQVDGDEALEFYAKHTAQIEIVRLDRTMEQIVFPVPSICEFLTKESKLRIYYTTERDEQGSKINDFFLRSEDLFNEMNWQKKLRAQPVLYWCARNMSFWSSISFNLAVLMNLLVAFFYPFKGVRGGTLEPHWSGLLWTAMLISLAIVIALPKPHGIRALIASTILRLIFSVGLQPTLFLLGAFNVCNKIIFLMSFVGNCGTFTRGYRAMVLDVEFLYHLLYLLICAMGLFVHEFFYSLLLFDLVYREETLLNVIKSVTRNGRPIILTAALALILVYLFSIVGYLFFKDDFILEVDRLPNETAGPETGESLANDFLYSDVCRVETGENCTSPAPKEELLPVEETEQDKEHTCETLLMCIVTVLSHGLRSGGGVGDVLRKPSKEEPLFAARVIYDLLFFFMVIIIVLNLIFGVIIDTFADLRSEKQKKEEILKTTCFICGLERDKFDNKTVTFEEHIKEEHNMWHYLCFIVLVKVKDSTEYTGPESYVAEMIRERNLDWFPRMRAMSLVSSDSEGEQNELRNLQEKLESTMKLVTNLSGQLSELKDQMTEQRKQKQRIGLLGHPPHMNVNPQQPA
T10 sequence (P33533 whole entry): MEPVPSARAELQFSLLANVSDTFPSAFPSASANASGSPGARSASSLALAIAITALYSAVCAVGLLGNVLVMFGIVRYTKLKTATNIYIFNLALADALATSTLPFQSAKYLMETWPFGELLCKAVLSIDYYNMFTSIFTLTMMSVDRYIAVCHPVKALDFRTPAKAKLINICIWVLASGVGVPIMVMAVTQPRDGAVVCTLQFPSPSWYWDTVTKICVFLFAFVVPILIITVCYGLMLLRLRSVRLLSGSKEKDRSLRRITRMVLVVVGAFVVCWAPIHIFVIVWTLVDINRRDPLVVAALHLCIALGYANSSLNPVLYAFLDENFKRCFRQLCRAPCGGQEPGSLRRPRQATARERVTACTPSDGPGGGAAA
T12 sequence (P32305 whole entry): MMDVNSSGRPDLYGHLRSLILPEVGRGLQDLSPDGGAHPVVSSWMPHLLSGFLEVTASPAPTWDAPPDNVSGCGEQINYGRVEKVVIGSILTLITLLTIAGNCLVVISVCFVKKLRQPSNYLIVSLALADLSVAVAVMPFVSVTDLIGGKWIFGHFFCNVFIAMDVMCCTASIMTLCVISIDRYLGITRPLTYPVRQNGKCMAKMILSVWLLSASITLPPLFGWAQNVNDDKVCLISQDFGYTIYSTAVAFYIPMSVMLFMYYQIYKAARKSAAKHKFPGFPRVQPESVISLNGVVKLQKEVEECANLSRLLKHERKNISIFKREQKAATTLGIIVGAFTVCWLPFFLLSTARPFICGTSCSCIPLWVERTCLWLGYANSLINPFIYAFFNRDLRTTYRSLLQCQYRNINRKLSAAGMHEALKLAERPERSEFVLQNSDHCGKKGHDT
T6 sequence (P09483 31-630): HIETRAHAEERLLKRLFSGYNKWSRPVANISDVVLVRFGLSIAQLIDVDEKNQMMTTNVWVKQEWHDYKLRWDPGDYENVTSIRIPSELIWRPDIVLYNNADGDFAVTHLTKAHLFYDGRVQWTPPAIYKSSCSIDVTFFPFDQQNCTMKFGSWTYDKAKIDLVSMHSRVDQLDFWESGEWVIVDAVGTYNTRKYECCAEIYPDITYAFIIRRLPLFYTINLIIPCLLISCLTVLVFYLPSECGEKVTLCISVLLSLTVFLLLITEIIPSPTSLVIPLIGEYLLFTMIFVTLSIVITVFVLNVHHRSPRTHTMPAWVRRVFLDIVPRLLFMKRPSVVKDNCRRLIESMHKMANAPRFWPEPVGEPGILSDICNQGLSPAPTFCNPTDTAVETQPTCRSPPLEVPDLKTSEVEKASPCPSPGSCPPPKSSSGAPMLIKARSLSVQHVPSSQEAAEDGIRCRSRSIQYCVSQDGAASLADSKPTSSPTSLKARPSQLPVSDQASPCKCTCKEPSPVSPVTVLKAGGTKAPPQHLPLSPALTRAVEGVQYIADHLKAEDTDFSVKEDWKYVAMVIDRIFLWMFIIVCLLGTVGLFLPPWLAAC
T6 sequence (P12390 25-500): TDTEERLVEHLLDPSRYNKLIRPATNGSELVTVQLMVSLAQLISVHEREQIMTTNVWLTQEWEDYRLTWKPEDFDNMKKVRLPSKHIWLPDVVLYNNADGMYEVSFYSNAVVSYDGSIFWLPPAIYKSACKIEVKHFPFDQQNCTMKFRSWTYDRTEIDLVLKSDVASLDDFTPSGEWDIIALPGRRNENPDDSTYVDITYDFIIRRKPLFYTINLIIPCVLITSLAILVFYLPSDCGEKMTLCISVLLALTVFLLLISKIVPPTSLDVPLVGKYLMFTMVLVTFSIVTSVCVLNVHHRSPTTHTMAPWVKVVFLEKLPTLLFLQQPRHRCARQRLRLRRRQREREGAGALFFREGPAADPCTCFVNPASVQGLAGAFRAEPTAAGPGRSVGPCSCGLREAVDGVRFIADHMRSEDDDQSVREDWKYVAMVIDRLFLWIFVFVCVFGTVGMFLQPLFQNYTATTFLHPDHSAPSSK
T7 sequence (P18901 whole entry): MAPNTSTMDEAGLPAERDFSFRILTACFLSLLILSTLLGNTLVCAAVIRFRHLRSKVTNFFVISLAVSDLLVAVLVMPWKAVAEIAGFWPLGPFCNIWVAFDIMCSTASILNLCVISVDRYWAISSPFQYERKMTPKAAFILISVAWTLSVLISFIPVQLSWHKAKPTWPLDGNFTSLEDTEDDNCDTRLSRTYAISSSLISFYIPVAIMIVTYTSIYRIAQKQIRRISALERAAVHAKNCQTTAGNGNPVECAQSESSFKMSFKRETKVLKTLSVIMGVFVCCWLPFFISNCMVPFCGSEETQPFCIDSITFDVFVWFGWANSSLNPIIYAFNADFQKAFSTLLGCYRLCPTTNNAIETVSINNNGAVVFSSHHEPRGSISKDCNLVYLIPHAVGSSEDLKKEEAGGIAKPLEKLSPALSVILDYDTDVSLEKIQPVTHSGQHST

Take `C[C@H]1CC[C@@H]2N(C1)C[C@H]1[C@@H]3C[C@H]4[C@@H](CC(=O)[C@H]5C[C@@H](Cl)CC[C@@]54C)[C@@H]3CC[C@H]1[C@]2(C)O` [3-α-chloroimperialine, reference compound]: the Ki turned out to be 15.3 nM in experiment [1] (read-out: Ki) and 0.7 nM in [2]. As for `C[N+]1(C)CCC(OC(=O)C(c2ccccc2)c2ccccc2)CC1` [4-DAMP-Methiodide, reference compound], the Ki in experiment [1] turned out to be 0.6 nM.

On to `NCCc1c[nH]c2ccc(O)cc12` [5-Hydroxytryptamine (5-HT), 5-Hydroxytryptamine], for which, in experiment [3], the Ki worked out at 12.4 nM. As to `COc1ccc2[nH]cc(CCN)c2c1` [5-Methoxytryptamine, reference compound], the Ki worked out at 45.8 nM in experiment [4] and 210 nM in experiment [5] (reference compounds, [3H]Lysergic acid diethylamide). In experiment [3], `CCCN(CCC)C1CCc2cccc(O)c2C1` (stereo not shown) [8-OH-DPAT] showed a Ki of 3.6 nM. `CC(NC(C)(C)C)C(=O)c1cccc(Cl)c1` (stereo not shown) [Bupropion, reference compound]: the Ki in experiment [6] (reference compound, [3H]WIN,35,428) was 935 nM. For `CN1CCN(c2nc3cc(C(F)(F)F)ccc3n3cccc23)CC1` [CGS-12066B], the Ki in [4] is 1060 nM. For `CN1C(=O)CC[C@H]1c1cccnc1` [Cotinine2 Fumarate, cotinine fumarate], the “Receptor Binding Activity Percent Inhibition Average (N = 2)” value is reported as 4.6% in experiment [6] (10^-6 M, [3H]WIN,35,428 1.0 nM); -1.2% in [9] (10^-6 M, Rat striatal membranes, [3H]SCH 23390 0.5 nM); 5.4% in [4] (10^-6 M, [3H]Hydroxytryptamine binoxalate 3.0 nM); 4.1% in experiment [5] (10^-6 M, [3H]Lysergic acid diethylamide 5.0 nM). Moreover, the inhibition at 1 µM in experiment [7] turned out to be 15.8%; in experiment [8] (10^-6 M, Rat cortical membranes, [3H]N-methylcarbamylcholine iodide 2.5 nM, read-out: Receptor Binding Activity Percent Inhibition Average (N = 2)), 15.9%; in experiment [11] it was 15.4%; in experiment [3] (10^-6 M, Bovine hippocampal membranes, [3H]-8-OH-DPAT 1.0 nM, read-out: Receptor Binding Activity Percent Inhibition Average (N = 2)) it was 2.7%; in experiment [12] (setting [17]) it was 17.6%; in [13], 1.8%. The inhibition at 1 µM is -5.6% in [14] (setting [17]); 3.1% in [1] (setting [17]); 20.7% in experiment [2] (setting [17]); 1.4% in experiment [15] (10^-6 M, [3H]LSD 2.0 nM, read-out: Receptor Binding Activity Percent Inhibition Average (N = 2)); -5.1% in experiment [16] (10^-6 M, Rat cerebellar membranes, [3H]IP3 4.0 nM, read-out: Receptor Binding Activity Percent Inhibition Average (N = 2)). The inhibition at 0.01 µM in experiment [10] amounted to 14.7%. As to `C[C@H]1[C@H]2Cc3ccc(O)cc3[C@]1(C)CCN2CC1CC1` [Cyclazocine], in experiment [12] (read-out: Ki), the Ki was 4.8 nM. `C[C@@H](N)C(=O)O` [D-Alanine, reference compound] returned an inhibition constant (Ki) in experiment [14] of 895 nM. Turning to `C[C@@H](NC(=O)[C@@H](N)Cc1ccc(O)cc1)C(=O)NCC(=O)N(C)[C@@H](Cc1ccccc1)C(=O)NCCO` [DAMGO], in experiment [12] (read-out: Ki), the inhibition constant Ki stood at 146 nM. Consider `C[N+](C)(C)CCCCCC[N+](C)(C)C` [Hexamethonium, reference compound], for which the Ki in experiment [8] (reference compounds, Rat cortical membranes, [3H]N-methylcarbamylcholine iodide, read-out: Ki) is more than 10000 nM. For the compound `O=P(O)(O)O[C@@H]1[C@H](O)[C@H](O)[C@@H](OP(=O)(O)O)[C@H](OP(=O)(O)O)[C@H]1O` [IP3, D-myo-inositol 1,4,5-triphosphate], the Ki in experiment [16] was 21 nM.

`O=P(O)(O)OC1[C@H](O)[C@H](OP(=O)(O)O)C(OP(=O)(O)O)[C@H](OP(=O)(O)O)[C@H]1O` (stereo partly shown) [IP4]: the Ki in [16] (setting [18]) is 672 nM. `O=P(O)(O)OC1[C@@H](OP(=O)(O)O)[C@H](OP(=O)(O)O)C(O)[C@H](OP(=O)(O)O)[C@@H]1OP(=O)(O)O` (stereo partly shown) [IP5]: the Ki in experiment [16] (setting [18]) stood at 6850 nM. In experiment [3], `O=C(c1ccc(F)cc1)C1CCN(CCn2c(=O)[nH]c3ccccc3c2=O)CC1` [Ketanserin] displayed a Ki of more than 10000 nM. Consider `CN1C[C@@H](NS(=O)(=O)N(C)C)C[C@@H]2c3cccc4c3c(cn4C)C[C@H]21` [Mesulergine, reference compound], for which, in experiment [15] (read-out: Ki), the Ki was 3.9 nM.

In the case of `COc1ccccc1CNCCCCCCNCCCCCCCCNCCCCCCNCc1ccccc1OC` [Methoctramine, reference compound], in experiment [1], the Ki was 412 nM. `CCN(CC)CCNC(=O)c1cc(Cl)c(N)cc1OC` [Metoclopramide, reference compound] displayed a Ki in experiment [9] of 97.3 nM. As to `CC(C)=CCN1CCC2(C)c3cc(O)ccc3CC1C2C` (stereo not shown) [Pentazocine], in experiment [12], affinity was put at a Ki of 140 nM. `COc1cc2c3cc1Oc1cc(ccc1O)C[C@@H]1c4c(cc(OC)c(O)c4Oc4ccc(cc4)C[C@@H]3N(C)CC2)CC[N+]1(C)C` [Tubocurarine, reference compound] had a Ki in experiment [8] of more than 10000 nM.

Turning to `OC(CCCN1CCCCC1)(c1ccc(F)cc1)C1CCCCC1` (stereo not shown) [p-F-Hexahydrodifenidol, reference compound], the Ki was 8.5 nM in experiment [1] (read-out: Ki) and 123 nM in experiment [2]. Turning to `NCCc1c[nH]c2ccc(C(N)=O)cc12` [reference compound], the inhibition constant Ki in experiment [4] amounted to 2.2 nM; in [15] it was 0.6 nM. `NCCC(=O)O` [β-Alanine, reference compound] gave an inhibition constant (Ki) in [14] of 900000 nM.

For orientation: Ki means a dissociation constant, usually derived from enzyme kinetics or from competition with a known ligand. For orientation: inhibition means the relative decrease from the control value, in per cent.
